Legend:
[1] = Example 5: precipitation from 90× electrolyte beverage product with 0.45 wt % Red 40 and added benzaldehyde solution or propylene glycol; assay type: physicochemical
Procedure: A 90× electrolyte beverage product was made without flavor containing 0.45 wt % Red 40, and a 3.0% benzaldehyde solution was made with propylene glycol. The benzaldehyde solution was then added back to the flavorless base at various levels up to 10%. As a control, the same variants were made without benzaldehyde solution, but with 100% propylene glycol, to confirm that any precipitation was directly due to the benzaldehdye and not propylene glycol. The formulations are as follows: […]

[2] = Observation of precipitate in model solutions of azo-dye, salt, benzaldehyde and water; assay type: physicochemical; conditions: for precipitation of a single azo-dye from solutions: solutions with (1) blends of two or more salts, (2) sweetener, (3) fiber (inulin) with sodium chloride; for precipitate in a solution of the substance and water: substance and water only
Source text: It was observed that many solutions fail to keep a single azo-dye species stable in the presence of electrolyte ions. For example, the azo-dye (Yellow 5, Yellow 6, or Red 40) precipitated from solutions containing the following: (1) blends of two or more salts (including potassium chloride, tripotassium phosphate, sodium chloride, and magnesium chloride) with a single azo-dye; (2) sweetener (including sucrose, fructose, and raw honey) and a single azo-dye; and (3) fiber (such as inulin) with sodium chloride and a single azo-dye.
Such precipitate is believed to be crystals of the azo-dye or possibly even co-crystals of the azo-dye with sodium chloride, sodium ions, chloride ions, or sodium and chloride ions. It is believed that the presence of an ion (not limited to sodium and/or chloride) creates an unfavorable environment for the azo-dye to exist in and causes the azo-dye to precipitate or crystallize. However, this crystallization or precipitation is not observed when levels of salt or azo-dye are below the threshold for the reaction to occur.
While wishing to not be bound by theory, a solution of benzaldehyde, salt, Red 40, and water causes precipitation through a different mechanism when compared to precipitate found from solutions of salt, an azo-dye, and water. […] Such precipitate is believed to be due the complexation of salt, Red 40, and benzaldehyde. This complexation may occur due to the thermodynamic unfavorability of all three components to exist in solution with one another. The precipitation found in this system appears to be more sediment-like rather than crystal-like precipitate found in a solution of Red 40, salt, and water. However, crystals or co-crystals may exist within the salt, Red 40, and benzaldehyde complexation and this complexation is not observed when levels of salt, azo-dye, or benzaldehyde are below the threshold for the reaction to occur.

[3] = 4 % added to 90 % electrolyte base (0.45 wt % Red 40), 0.12% benzaldehyde for the benzaldehyde solution
[4] = 6 % added to 90 % electrolyte base (0.45 wt % Red 40), 0.18% benzaldehyde for the benzaldehyde solution
[5] = 8 % added to 90 % electrolyte base (0.45 wt % Red 40), 0.24% benzaldehyde for the benzaldehyde solution
[6] = 10 % added to 90 % electrolyte base (0.45 wt % Red 40), 0.3% benzaldehyde for the benzaldehyde solution

precipitate / complexation in a solution of salt, azo-dye, benzaldehyde, and water [2] | precipitation of a single azo-dye from solutions [2] | precipitate in a solution of the substance and water [2] | Structure (SMILES) | Observations after 2 months at 70 F. (room temp) ([1]; 0.1 % added to 90 % electrolyte base (0.45 wt % Red 40)) | Observations after 2 months at 70 F. (room temp) ([1]; 0.25 % added to 90 % electrolyte base (0.45 wt % Red 40)) | Observations after 2 months at 70 F. (room temp) ([1]; 0.5 % added to 90 % electrolyte base (0.45 wt % Red 40)) | Observations after 2 months at 70 F. (room temp) ([1]; 1 % added to 90 % electrolyte base (0.45 wt % Red 40)) | Observations after 2 months at 70 F. (room temp) ([1]; 2 % added to 90 % electrolyte base (0.45 wt % Red 40)) | Observations after 2 months at 70 F. (room temp) [1, 3] | Observations after 2 months at 70 F. (room temp) [1, 4] | Observations after 2 months at 70 F. (room temp) [1, 5] | Observations after 2 months at 70 F. (room temp) [1, 6] | benzaldehyde content at which the system is free of precipitation ([1]; 90× electrolyte concentrate with 0.45 wt % Red 40, stored for up to 2 months)
not stable and produces precipitate | precipitated | free of precipitate | COc1cc(S(=O)(=O)[O-])c(C)cc1N=Nc1c(O)ccc2cc(S(=O)(=O)[O-])ccc12.[Na+].[Na+] [Red 40] | – | – | – | – | – | – | – | – | – | –
no complexations were observed | precipitated | free of precipitate | O=S(=O)([O-])c1ccc(N=Nc2c(O)ccc3cc(S(=O)(=O)[O-])ccc23)cc1.[Na+].[Na+] [Yellow 6] | – | – | – | – | – | – | – | – | – | –

Second part, the compound before the results:

Structure (SMILES) | precipitate / complexation in a solution of salt, azo-dye, benzaldehyde, and water [2] | precipitation of a single azo-dye from solutions [2] | precipitate in a solution of the substance and water [2] | Observations after 2 months at 70 F. (room temp) ([1]; 0.1 % added to 90 % electrolyte base (0.45 wt % Red 40)) | Observations after 2 months at 70 F. (room temp) ([1]; 0.25 % added to 90 % electrolyte base (0.45 wt % Red 40)) | Observations after 2 months at 70 F. (room temp) ([1]; 0.5 % added to 90 % electrolyte base (0.45 wt % Red 40)) | Observations after 2 months at 70 F. (room temp) ([1]; 1 % added to 90 % electrolyte base (0.45 wt % Red 40)) | Observations after 2 months at 70 F. (room temp) ([1]; 2 % added to 90 % electrolyte base (0.45 wt % Red 40)) | Observations after 2 months at 70 F. (room temp) [1, 3] | Observations after 2 months at 70 F. (room temp) [1, 4] | Observations after 2 months at 70 F. (room temp) [1, 5] | Observations after 2 months at 70 F. (room temp) [1, 6] | benzaldehyde content at which the system is free of precipitation ([1]; 90× electrolyte concentrate with 0.45 wt % Red 40, stored for up to 2 months)
CC(O)CO (stereo not drawn) [PG 100%, Propylene Glycol] | – | – | – | No precipitation | No precipitation | No precipitation | No precipitation | No precipitation | No precipitation | No precipitation | No precipitation | No precipitation | –
O=C(O)c1nn(-c2ccc(S(=O)(=O)O)cc2)c(O)c1N=Nc1ccc(S(=O)(=O)O)cc1 [Yellow 5] | no complexations were observed | precipitated | free of precipitate | – | – | – | – | – | – | – | – | – | –
O=Cc1ccccc1 [benzaldehyde] | – | – | free of precipitate | – | – | – | – | – | formed precipitation | formed precipitation | formed precipitation within hours | formed precipitation within hours | up to 0.11%
